Assay results taken from article PMC7321408, “One-Pot Multicomponent Synthesis and Bioevaluation of Tetrahydroquinoline Derivatives as Potential Antioxidants, α-Amylase Enzyme Inhibitors, Anti-Cancerous and Anti-Inflammatory Agents” (Molecules, 2020).
≈ marks a conversion by molar mass, not a printed value.

What was measured:
[1] = DPPH free radical scavenging assay; conditions: mean ± SEM, n = 3; for IC50 (DPPH radical scavenging): concentration to scavenge 50% of the DPPH radicals
Experimental: The % free radical scavenging activity (%FRSA) of the synthetic compounds was evaluated by the discoloration of an unstable DPPH reagent to the stable yellow-colored 2,2-diphenyl-1-picrylhydrazine molecule by accepting one electron from a donor antioxidant; the mechanism is shown in Scheme 2.
The % FRSA (free radical scavenging activity) of the synthetic compounds was determined by using the method of Tai et al. with slight modifications. The antioxidant potential was determined by detecting the capacity of the synthetic compounds to quench the DPPH free radicals. The synthetic compounds were taken in a 96-well plate at three-fold concentrations of 200 µg/mL, 66.6 µg/mL, 22.2 µg/mL and 7.4 µg/mL. DPPH free radicals were added to entire wells to make up the volume up to 200 µL. DMSO and ascorbic acid were taken as negative and positive controls, respectively. The absorbance was taken at 630nm using a microplate reader (ELx800 BioTek). The percentage of scavenging activity was calculated by the given formula:% scavenging activity = (1 − Abs/Abc) × 100
Abs = sample’s absorbance; Abc = control’s absorbance.

brine shrimp nauplii = assay: Brine shrimp lethality bioassay; type: in vivo; conditions: 24 h, n = 3
Experimental: Brine shrimp eggs were hatched in a shallow rectangular plastic dish and filled with artificial seawater, which was prepared with a commercial salt mixture. In a 96-well plate, 150 µL of artificial seawater was added and 10 nauplii were added into this. Test compounds (400, 200, 100 and 50 µg/mL) were added into each well and the final volume was made up by adding the artificial seawater. The well plate was left uncovered under a lamp. The number of surviving shrimps were counted and recorded after 24 h. The test was repeated in triplicate. […] The percentage mortality (%M) was also calculated by dividing the number of dead nauplii by the total number and then multiplied by 100.

[2] = MTT cytotoxicity against raw macrophages; type: cell-based, albino rats; conditions: albino, rat; for viability at 24 h, 1 µM / viability at 24 h, 10 µM / viability at 24 h, 50 µM / viability at 24 h, 100 µM: peritoneal macrophages (raw macrophages), raw macrophages, MTT, read-out: % Cell Viability; for IC50 at 24 h: primary peritoneal macrophages, mean ± SEM, n = 3
Experimental: The % cell viability of the synthetic library was evaluated in vitro by measuring the mitochondrial dehydrogenase activity (MTT test) on raw macrophages.
The cytotoxic potential was assessed by using an MTT 3-(4,5-dimethyl thiazole-2-yl)-2,5- diphenyl tetrazolium bromide assay. Briefly, macrophages were extracted from the peritoneal cavity of albino rats and plated at a density of 1 × 10^6 per well in a 96-well plate and incubated in a 5% CO2 incubator at 37 °C for 24 h. The cells were treated with various concentrations of the test compounds (100 µM, 50 µM, 10 µM and 1 µM) or vehicle alone. The test compounds were first dissolved in DMSO to make a 100 mM stock solution and then further dilutions were made from this stock solution. After 24 h of incubation, 20 µL of MTT (1 mg/mL in normal saline) was added into each well and incubated under the same conditions for 2 h. Mitochondrial succinate dehydrogenase converted MTT in live cells into purple formazan crystals. The formazan crystals were then solubilized in 100 µL DMSO, and the absorbance was measured at 570 nm. The % cell viability was calculated by the following formula; % cell viability = (abssample − absblank)/(abscontrol − absblank) × 100

[3] = system: NO generated by LPS-induced macrophages; assay: Nitric oxide assay (Griess) in LPS-induced macrophages; type: cell-based, murine; conditions: for activity at 1 µM / activity at 10 µM / activity at 50 µM / activity at 100 µM: 18 h, LPS 1 µg/mL, read-out: % NO Production (Mean ± SEM)
Experimental: A Griess reagent, a spectrophotometric determination of nitrite level, was carried out to measure the nitrite level in the conditioned medium of macrophages treated with lipopolysaccharide (LPS). Sodium nitrite (NaNO2) was used as a standard compound for the standard curve (Figure 8). The NO concentrations were obtained using the standard curve equation: y = 0.0083x + 0.0017, R^2 = 0.9999, where y is the absorbance at 540 nm and x is the NO concentration in µM. The inhibitory activity of the tested compounds towards NO generated by LPS-induced macrophages was obtained from the calculated value of x.
The anti-inflammatory effect of the synthesized compounds in murine macrophages was evaluated by using the Griess reaction method, described previously. In brief, 1 × 10^6 were plated in a 96-well plate and incubated in a 5% CO2 incubator at 37 °C for 24 h, pre-treated with different concentrations (100 µM, 50 µM, 10 µM and 1 µM) of synthetic compounds for another 2 h and challenged with LPS (1 µg/mL) for an additional 18 h. Equal volumes of Griess reagent (1% sulphanilamide in 50% phosphoric acid and 0.1% naphthyl ethylenediamine dihydrochloride in distilled water and vortexed) and culture medium were mixed and the absorbance was taken at 540 nm. Lipopolysaccharide (LPS) was taken as a blank and piroxicam was taken as a positive control. A t-test was applied to determine the significance of the results.

[4] = system: carrageenan-induced paw edema; assay: Carrageenan-induced paw edema (in vivo anti-inflammatory activity); design: species or system BALB/C albino mice; unit not given beside the values; conditions: 10 mg/kg, mice, n = 5
Experimental: At 7–8 weeks old, male BALB/C albino mice (29–35 g), were purchased from The National Institute of Health (NIH), Islamabad, Pakistan. Five animals were housed per group and placed in a controlled temperature and humidity-controlled room (22 °C and 66 ± 5%, respectively) in a 12 h light–dark cycle and provided with water and food ad libitum. Ethical approval was taken from the bio-ethical committee of Quaid-I-Azam University (Approval No. BEC-FBS-QAU2018-119) and all protocols were conducted following the Ethical Guide to the Code of Practice for the Housing and Care of Animals Act 1986 (ARRIVE (Animal Research: Reporting In Vivo Experiments) guidelines). The anti-inflammatory activity of the synthesized compounds was evaluated by using the carrageenan-induced rat paw edema assay. To determine the dose response of tetrahydroquinoline derivatives, animals were first given a dose of 0.1, 1 and 10 mg/kg against 100 µL carrageenan (1% solution in normal saline)/paw. Treatment was given 60 min before carrageenan injection. Readings were taken at 4 h post carrageenan injection. The in vivo anti-inflammatory activity was performed following the procedure described by Koksal, et al. in 2017. Paw edema was induced by injecting 100 µL of 1% sterile carrageenan solution into the right hind paw of mice. Synthesized compounds (10 mg/kg), vehicle (saline with 2% DMSO) and drug (acetylsalicylic acid, ASA 10 mg/kg) were administered to the mice orally by gastric intubation 60 min before injecting carrageenan into the right hind paw. The decrease in edema was measured by vernier calipers every 2 h.

α-amylase enzyme = assay: α-Amylase enzyme inhibitory assay; type: biochemical; conditions: 200 µg/mL
Experimental: An in vitro α-amylase enzyme inhibitory assay was performed by the standard protocol. Four milligrams per 1 mL of sample was prepared in DMSO. In each well of a 96-well plate, synthetic compounds were added to a final concentration of 200 µg/mL. To this, 15 μL phosphate buffer, […] α-amylase enzyme and 40 μL starch solution were added stepwise. The microplate was incubated at 50 °C for 30 min. […] The formula used to calculate the percent enzyme inhibition is:% Enzyme inhibition = [(As − An) ÷ (Ab − An] × 100
As = sample’s absorbance; An = negative’s absorbance; Ab = blank’s absorbance

[5] = Mus musculus, Macrophage, 50 µM
[6] = 0 h after carrageenan injection
[7] = 2 h after carrageenan injection
[8] = 4 h after carrageenan injection
[9] = 6 h after carrageenan injection

With c1ccc2c(c1)CCCN2CN1CCCC1 [SF3, 1-(Pyrollidin-1-ylmethyl) -1,2,3,4-tetrahydroquinoline] the “% DPPH Scavenging Activity” value ([1]; 7.4 µg/mL) was 3.76 ± 0.125%, the “% DPPH Scavenging Activity” value ([1]; 22.22 µg/mL) was 9.85 ± 0.18% and the “% DPPH Scavenging Activity” value ([1]; 66.66 µg/mL) was 18.32 ± 0.91%. For the same molecule, the “% DPPH Scavenging Activity” value ([1]; 200 µg/mL) was 27.19 ± 0.31%, the “IC50 (DPPH radical scavenging)” value [1] was 52.75 ± 0.28 µg/mL (≈ 244 µM) and the “LD50 ± SEM (brine shrimp lethality)” value (brine shrimp nauplii) was 102 ± 1.98 µg/mL. The viability at 24 h, 1 µM [2] was 83 ± 0.63%, the viability at 24 h, 10 µM [2] was 78 ± 0.74% and the viability at 24 h, 50 µM [2] was 72 ± 1.34%. It also gave a viability at 24 h, 100 µM [2] of 41 ± 1.07%, an IC50 at 24 h [2] of 29.1 ± 0.5 µM and an activity at 1 µM ([3]; Mus musculus, Macrophage, 1 µM) of 33.2 ± 0.47%. For the same molecule, the activity at 10 µM ([3]; Mus musculus, Macrophage) was 29.6 ± 0.42%, the activity at 50 µM [3, 5] was 23.8 ± 0.39% and the activity at 100 µM ([3]; Mus musculus, Macrophage) was 19.7 ± 0.37%. For the same molecule, the Paw thickness [4, 6] was 2.05 ± 0.06, the Paw thickness [4, 7] was 2.16 ± 0.05 and the Paw thickness [4, 8] was 2.22 ± 0.02. For the same molecule, the Paw thickness [4, 9] was 2.28 ± 0.07.

With c1ccc2c(c1)CCCN2CN1CCOCC1 [SF2, 4-((3,4-Dihydroquinolin—1(2H)-yl)methyl) morpholine] the “% DPPH Scavenging Activity” value ([1]; 7.4 µg/mL) was 17.44 ± 0.26%, the “% DPPH Scavenging Activity” value ([1]; 22.22 µg/mL) was 36.61 ± 0.22% and the “% DPPH Scavenging Activity” value ([1]; 66.66 µg/mL) was 58.39 ± 0.27%. For the same molecule, the “% DPPH Scavenging Activity” value ([1]; 200 µg/mL) was 71.85 ± 0.27%, the “IC50 (DPPH radical scavenging)” value [1] was 42.55 ± 0.36 µg/mL (≈ 183 µM) and the “% inhibition of α-amylase enzyme” value (α-amylase enzyme) was 79.97%. For the same molecule, the “LD50 ± SEM (brine shrimp lethality)” value (brine shrimp nauplii) was 141.4 ± 2.1 µg/mL, the viability at 24 h, 1 µM [2] was 76 ± 0.46% and the viability at 24 h, 10 µM [2] was 70 ± 0.91%. It also gave a viability at 24 h, 50 µM [2] of 60 ± 0.91%, a viability at 24 h, 100 µM [2] of 50 ± 1.52% and an IC50 at 24 h [2] of 26.8 ± 0.3 µM. The activity at 1 µM ([3]; Mus musculus, Macrophage, 1 µM) was 32.2 ± 0.46%, the activity at 10 µM ([3]; Mus musculus, Macrophage) was 27.1 ± 0.36% and the activity at 50 µM [3, 5] was 22.1 ± 0.33%. It also gave an activity at 100 µM ([3]; Mus musculus, Macrophage) of 15.3 ± 0.29%, a Paw thickness [4, 6] of 2.05 ± 0.05 and a Paw thickness [4, 7] of 2.11 ± 0.06. For the same molecule, the Paw thickness [4, 8] was 2.17 ± 0.03 and the Paw thickness [4, 9] was 2.23 ± 0.07.

For CC(=O)N(CN1CCCc2ccccc21)c1ccc(O)cc1 [SF13, N-((3,4-dihydroquinolin-1(2H)-yl)methyl)-N-(4-hydroxyphenyl) acetamide], the “% DPPH Scavenging Activity” value ([1]; 7.4 µg/mL) was 1.98 ± 0.20%, the “% DPPH Scavenging Activity” value ([1]; 22.22 µg/mL) was 4.44 ± 0.18% and the “% DPPH Scavenging Activity” value ([1]; 66.66 µg/mL) was 11.78 ± 0.15 s %. For the same molecule, the “% DPPH Scavenging Activity” value ([1]; 200 µg/mL) was 19.34 ± 0.34%, the “% inhibition of α-amylase enzyme” value (α-amylase enzyme) was 10.51% and the “LD50 ± SEM (brine shrimp lethality)” value (brine shrimp nauplii) was 204 ± 1.67 µg/mL. For the same molecule, the viability at 24 h, 1 µM [2] was 85 ± 0.93%, the viability at 24 h, 10 µM [2] was 82 ± 0.66% and the viability at 24 h, 50 µM [2] was 73 ± 1.01%. The viability at 24 h, 100 µM [2] was 60 ± 1.24%, the IC50 at 24 h [2] was 41.4 ± 0.69 µM and the “NO level scavenged (maximum)” value ([3]; 50 µM) was 85%. The activity at 1 µM ([3]; Mus musculus, Macrophage, 1 µM) was 25.1 ± 0.59%, the activity at 10 µM ([3]; Mus musculus, Macrophage) was 22.2 ± 0.52% and the activity at 50 µM [3, 5] was 15.6 ± 0.47%. For the same molecule, the activity at 100 µM ([3]; Mus musculus, Macrophage) was 14.5 ± 0.44%, the inhibition at 1 µM ([3]; Mus musculus, Macrophage, 1 µM, read-out: NO maximum inhibition) was 75% and the Paw thickness [4, 6] was 2.04 ± 0.07. For the same molecule, the Paw thickness [4, 7] was 2.18 ± 0.03, the Paw thickness [4, 8] was 2.26 ± 0.06 and the Paw thickness [4, 9] was 2.31 ± 0.07.
